Experimental data taken from US10842772B1, “Cannabis-based bioactive formulations and methods for use thereof” (priority 2016, dated 2020).
Where a name gives a salt, the structure may show the parent alone.

Columns and labels:
CB1 and CB2 receptors = conditions: cited from earlier work
GPR55 = GPR55 (Homo sapiens, UniProt Q9Y2T6); conditions: putative new cannabinoid receptor; cited from earlier work
5-HT1A receptor = molecular target: T1, 5-HT1A receptor (Homo sapiens, UniProt P08908); conditions: cited from earlier work
T1 sequence (P08908 1-422): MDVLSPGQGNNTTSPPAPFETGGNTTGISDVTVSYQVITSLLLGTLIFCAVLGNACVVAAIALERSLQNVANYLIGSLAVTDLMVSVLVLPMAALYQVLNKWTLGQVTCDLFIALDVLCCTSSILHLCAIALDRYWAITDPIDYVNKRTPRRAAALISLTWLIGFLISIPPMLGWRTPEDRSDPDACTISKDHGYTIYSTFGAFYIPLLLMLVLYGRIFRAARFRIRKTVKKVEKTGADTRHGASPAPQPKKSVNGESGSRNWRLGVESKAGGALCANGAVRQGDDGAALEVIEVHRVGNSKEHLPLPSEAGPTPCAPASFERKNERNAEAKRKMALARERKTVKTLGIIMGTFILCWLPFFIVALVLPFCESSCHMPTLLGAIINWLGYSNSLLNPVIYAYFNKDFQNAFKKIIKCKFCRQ

[1] = system: Patient 1 (anxiety, depression, OCD, ADHD-related symptoms); experiment: Example 2: treatment of Patient 1 with THC (vaporized, then edible); format: in vivo, human
Procedure: Following cessation of efficacy of Zoloft, Patient 1 obtained a prescription for medical marijuana. Patient 1 began by vaporizing marijuana buds and later vaporizing THC wax and oil concentrates.
Patient 1 began consuming THC in edible form at doses ranging from 10-35 mg every 4-6 hours. Initially, Patient 1 consumed 10-20 mg for approximately 1-2 months, and then increased the dose to 30-35 mg. […] Patient 1 used orally consumed THC as a medicament for at least 9 months during which time they observed and recorded the changes in their mood, movements, cognition and behavior while practicing law working, raising children, and otherwise functioning in their daily life. […] Patient 1 continued to use the SSRI Zoloft during approximately the first 2 months of this 9-month period, but thereafter discontinued the use of Zoloft.
Patient 1 reports that symptom relief seems tied to THC's slowing of their perception of time, which results in cascading (positive) effects on their mood, movements, cognition and behavior.

[2] = system: patients experiencing ADHD-related symptoms or ASD-related symptoms; experiment: Example 3: group study, THC versus placebo; format: in vivo, human; conditions: THC or Marinol versus placebo; re-evaluation after 2-3 weeks adjustment
Procedure: In patients experiencing ADHD-related symptoms or ASD-related symptoms, obtain baseline measures (using, reports, observations or tests described above) of the symptoms and deficits commonly associated with the conditions. Administer THC, or a synthetic substitute such as Marinol® at a specific dose, to half of the group and administer a placebo to the remainder of the participants. The group that is administered THC should be allowed at least 2-3 weeks to acclimate to THC. After the several week adjustment period, all patients should be re-evaluated using the same or similar tests, observations and reports upon which initial measures of symptoms and deficits were made.

CB2 receptor = CB2 receptor (Homo sapiens, UniProt P34972); conditions: cited from earlier work
[3] = cited from earlier work
[4] = system: Patient 1 (anxiety, depression, OCD, substance abuse, ADHD); experiment: Example 1: treatment of Patient 1 with Zoloft; format: in vivo, human
Procedure: Patient 1 was also a regular user of alcohol and a recreational user of cocaine. Patient 1 was prescribed selective serotonin reuptake inhibitor (SSRI) Zoloft, at 25 mg with doses increasing up to 200 mg over the course of approximately 6-8 months. The dose of Zoloft/sertraline used was 25-200 mg.

[5] = THC in edible form 10-35 mg every 4-6 hours

Chain of CB2 receptor (P34972 whole entry): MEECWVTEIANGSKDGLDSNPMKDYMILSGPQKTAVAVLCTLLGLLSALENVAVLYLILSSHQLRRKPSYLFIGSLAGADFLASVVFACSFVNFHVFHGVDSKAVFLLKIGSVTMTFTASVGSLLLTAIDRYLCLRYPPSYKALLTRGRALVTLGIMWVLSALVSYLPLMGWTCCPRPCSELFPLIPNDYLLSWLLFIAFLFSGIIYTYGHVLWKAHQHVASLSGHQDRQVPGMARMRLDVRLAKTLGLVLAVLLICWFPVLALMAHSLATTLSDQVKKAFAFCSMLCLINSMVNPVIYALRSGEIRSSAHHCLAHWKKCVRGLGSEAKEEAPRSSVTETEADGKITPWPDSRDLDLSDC
Chain of GPR55 (Q9Y2T6 whole entry, species assumed): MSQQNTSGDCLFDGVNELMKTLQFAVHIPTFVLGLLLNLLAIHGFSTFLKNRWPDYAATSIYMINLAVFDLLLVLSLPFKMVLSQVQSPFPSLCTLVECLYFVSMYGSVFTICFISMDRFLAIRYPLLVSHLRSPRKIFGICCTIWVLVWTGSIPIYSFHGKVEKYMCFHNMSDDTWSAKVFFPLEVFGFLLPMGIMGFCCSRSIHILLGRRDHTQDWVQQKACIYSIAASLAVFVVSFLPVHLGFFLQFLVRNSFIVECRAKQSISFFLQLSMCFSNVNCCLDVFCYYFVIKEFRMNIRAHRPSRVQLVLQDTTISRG

C=C(C)[C@@H]1CCC(C)=C[C@H]1c1c(O)cc(CCCCC)cc1O [CBD, cannabidiol]
affinity for CB1 and CB2 receptors (CB1 and CB2 receptors): little affinity | relative affinity for CB1 versus CB2 receptor (CB1 and CB2 receptors): greater affinity for the CB2 receptor | activity at GPR55 (GPR55): antagonist | activity at 5-HT1A receptor (5-HT1A receptor): agonist

CCCCCc1cc(O)c2c(c1)OC(C)(C)[C@@H]1CCC(C)=C[C@@H]21 [THC, (−)-(6aR,10aR)-6,6,9-trimethyl-3-pentyl-6a,7,8,10a-tetrahydro-6H-benzo[c] chromen-1-ol]
OCD and ADHD-related symptoms [1, 5]: elimination | ability to focus and concentrate on reading, writing, and interpersonal interactions [1, 5]: increased ability to focus and concentrate | anxiety, depression [1, 5]: significant reduction | perception of time [1, 5]: slowed perception of time | side effects ([1]; edible THC, after initial adjustment period of approximately 2 weeks): No significant side effects | ability to read body language and facial expressions ([1]; orally-consumed THC): increase in their ability to read body language and facial expressions | alcohol and cocaine use ([1]; orally-consumed THC): rarely consumed alcohol and stopped using cocaine | coordination and balance, fine motor skills ([1]; orally-consumed THC): improvements in coordination and balance | interpersonal relationships at home and in the workplace ([1]; orally-consumed THC): improvement in interpersonal relationships | propensity to interrupt while orally communicating ([1]; orally-consumed THC): reduced propensity to interrupt | sensitivity to peripheral noise and other distractions ([1]; orally-consumed THC): reduction in sensitivity | visualizing images described in writings, sense of direction ([1]; orally-consumed THC): increased ability to visualize images described in writings and an improved sense of direction | symptoms and deficits associated with ASD and ADHD [2]: reduce or eliminate | relative affinity for CB1 versus CB2 receptor (CB1 and CB2 receptors): approximately equal affinity | activity at CB2 receptor (CB2 receptor): partial agonist | peak plasma time ([3]; Absorption): 0.5 to 4 h | protein bound ([3]; Distribution): 90-99% | excretion: feces ([3]; Elimination): 50% | excretion: urine ([3]; Elimination): 15% | half-life, parent drug ([3]; Elimination): 25 to 36 h | renal clearance ([3]; Elimination): 18 to 20 mL/min | total body clearance ([3]; Elimination): 3.3 mL/min/kg | Metabolism ([3]; in vivo): extensive first-pass hepatic metabolism

CN[C@H]1CC[C@@H](c2ccc(Cl)c(Cl)c2)c2ccccc21 [Zoloft, sertraline HCl]
treating anxiety, depression, OCD, substance abuse and ADHD ([4]; 25 mg increasing up to 200 mg over 6-8 months, at initial dose and each incremental increase): initially effective | persistence of effects ([4]; 25-200 mg, after dosage increases): effects wore off at varying intervals
